Experimental data published in patent US20230048888A1, “USE OF TRIAZOLOTRIAZINE DERIVATIVE IN TREATMENT OF DISEASES” (ZHEJIANG VIMGREEN PHARMACEUTICALS, LTD., priority 2019, published 2023).

Key:
[1] = target: T1, adenosine receptor A3 (Homo sapiens, UniProt P0DMS8); assay: cAMP experiment on Gi-coupled adenosine receptor A3 (CHO); type: cell-based; conditions: cAMP accumulation; read-out: IC50 (nM) CHO cells (ADORA3)
T1 construct: host or cells: CHO
T1 sequence (P0DMS8 1-318): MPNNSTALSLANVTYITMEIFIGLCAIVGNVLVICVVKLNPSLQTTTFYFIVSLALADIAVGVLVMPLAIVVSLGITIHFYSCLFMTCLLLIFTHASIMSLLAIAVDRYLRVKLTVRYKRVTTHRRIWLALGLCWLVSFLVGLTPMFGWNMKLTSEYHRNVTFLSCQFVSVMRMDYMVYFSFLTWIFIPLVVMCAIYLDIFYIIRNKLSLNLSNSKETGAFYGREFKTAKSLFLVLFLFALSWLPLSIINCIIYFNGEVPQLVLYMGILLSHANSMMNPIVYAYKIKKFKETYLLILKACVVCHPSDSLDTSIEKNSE
Procedure: Similarly, a CHO cell strain stably expressing the adenosine receptor A3 was taken as a study object (PerkinElmer, ES-012-C) for the experiment. The IC50 value of the compound was calculated.

[2] = target: T2, adenosine receptor A1 (Homo sapiens, UniProt P30542); assay: cAMP experiment on Gi-coupled adenosine receptor A1 (CHO); type: cell-based; conditions: cAMP accumulation, NECA EC80 + forskolin; read-out: IC50 (nM) CHO cells (ADORA1)
T2 construct: host or cells: CHO
T2 sequence (P30542 1-326): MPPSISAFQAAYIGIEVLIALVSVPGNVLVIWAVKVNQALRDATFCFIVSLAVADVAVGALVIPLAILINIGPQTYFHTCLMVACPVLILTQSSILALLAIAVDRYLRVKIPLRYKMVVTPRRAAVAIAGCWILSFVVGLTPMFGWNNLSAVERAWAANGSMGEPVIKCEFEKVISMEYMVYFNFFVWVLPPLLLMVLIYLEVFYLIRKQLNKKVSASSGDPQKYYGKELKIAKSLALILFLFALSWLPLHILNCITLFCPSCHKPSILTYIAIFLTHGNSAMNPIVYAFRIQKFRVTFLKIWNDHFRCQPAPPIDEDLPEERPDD
Procedure: In this experiment, a CHO cell strain stably expressing the adenosine receptor Al was taken as a study object (PerkinElmer, ES-010-C) for the experiment. […] A solution system for cell inoculation was 10 μL of cAMP experimental buffer. […] Likewise, 10 mM test compound was also subjected to 3-fold gradient dilution in 100% DMSO. 1 mM forskolin (Sigma, F3917) was prepared with 100% DMSO. The gradient-diluted reference compound and test compound and the 1 mM forskolin were added to a 384-well compound plate (Labcyte, PP-0200). 10 nL of the 1 mM forskolin per well and 10 nL of the gradient-diluted reference agonist NECA per well were transferred to a test plate containing cells by using Echo (Labcyte, 550), and the test plate was incubated for 30 minutes at 37° C. 5 μL of Eu-cAMP tracer working solution and 5 μL of ULight-anti-cAMP working solution (PerkinElmer, TRF0263) were added to the test plate per well, and the test plate was incubated for 30 minutes at 25° C. […] 1000×EC80 NECA was prepared with 100% DMSO. 10 nL of the reference inhibitor DPCPX gradient-diluted per well and 10 nL of the test compound gradient-diluted per well per well were transferred to a test plate containing the cells, and the test plate was incubated for 20 minutes at 25° C. 10 nL of 1000×EC80 NECA per well and 10 nL of 1 mM forskolin per well were transferred to the test plate The test plate was incubated for 30 minutes at 37° C. 5 μL of Eu-cAMP tracer working solution and 5 μL of ULight-anti-cAMP working solution were added to the test plate per well, and the test plate was incubated for 30 minutes at 25° C. The fluorescence signal ratio of each well in the test plate was read, and the IC50 value of the compound was calculated by using the output data of the reference inhibitor and test compound and the concentration of the compound.

IC50 [1] [nM] | IC50 [2] [nM] | Structure (SMILES)
458 | 679 | COCCNc1ccc(CCNc2nc(N)n3nc(-c4ccco4)nc3n2)cc1 [Compound 27, 2-(furan-2-yl)-N5-(4-((2-methoxyethyl)amino)phenethyl)-[1,2,4]triazolo[1,5-a][1,3,5]triazine-5,7-diamine]
928 | 388 | Cn1nnc(-c2ccc(CCNc3nc(N)n4nc(-c5ccco5)nc4n3)cc2)n1 [Compound 40, N5-(4-(2-methyl-2H-tetrazol-5-yl)phenethyl)-2-(furan-2-yl)-[1,2,4]triazolo[1,5-a][1,3,5]triazine-5,7-diamine]
2080 | 1200 | CCn1c(=O)c2c(nc(/C=C/c3ccc(OC)c(OC)c3)n2C)n(CC)c1=O [Istradefylline, reference compound]

Structure (SMILES) | IC50 [1] [nM] | IC50 [2] [nM]
Nc1nc(NCCc2ccc(NC3COC3)cc2)nc2nc(-c3ccco3)nn12 [Compound 22, 2-(furan-2-yl)-N5-(4-(oxetan-3-ylamino)phenethyl)-[1,2,4]triazolo[1,5-a][1,3,5]triazine-5,7-diamine] | 585 | 928
